# Measured values reported in publication PMC10689823, “Discovery of a Drug-like, Natural Product-Inspired DCAF11 Ligand Chemotype” (Nature Communications, 2023).
# Where “and” joins values, the source holds several entries; their conditions need not be identical. Identical values can stand only once. Like-named read-outs stand apart in the source and are kept apart here.
# What was measured:
# PDEδ [1] = target: T1, PDEδ (Homo sapiens, UniProt O43924); assay: PDEδ levels by Western blot in HEK293T, HAP1 and LC3B knockout HAP1 cells; type: cell-based; design: endogenous in cells; host or cells: HEK293T; HAP1 and LC3B-knockout HAP1
# Experimental: (§1) Cells were washed with PBS and lysed in lysis buffer (50 mM Tris-HCl, pH 7.4, 150 mM NaCl, 1% Triton X-100, 1% sodium deoxycholate, 0.1% SDS) with complete protease inhibitor cocktail (Roche, 11836170001) for 30 min on ice. For Ramos cells, cell pellets were lysed in lysis buffer (50 mM Tris-HCl, pH 8, 150 mM NaCl, 1% NP-40, 0.5% sodium deoxycholate) with complete protease inhibitor cocktail. After centrifugation at 16,000 x g, the supernatant was transferred into a new tube and the protein concentration was determined by DC protein assay (BIO-RAD, 5000116). Proteins were separated by SDS-PAGE and transferred to a PVDF membrane (Thermo scientific, 0.45 μm, 88518). For PDEδ, BRD2, GAPDH, BRD4, Vinculin and BTK, the membranes were blocked with Intercept® Blocking Buffer (LI-COR Biosciences, 927-70001) at room temperature for 1 h. The primary antibodies for these proteins were diluted with Intercept® Blocking Buffer (1:500 for PDEδ, 1:3000 for Vinculin, and 1:1000 for other proteins) and incubated with the membranes overnight at 4 °C. Membranes were washed with PBS + 0.1% Tween 20 (PBS-T) five times and incubated with secondary antibodies conjugated to IRDye® Infrared Fluorescent Dyes (1:5000, LI-COR Biosciences) at room temperature for 1 h with protection from light. […] Relative band intensities were quantified using Image Lab (BIO-RAD).
# PDEδ [2] = target: T1, PDEδ; assay: PDEδ levels by Western blot in Dox-inducible DDB1 knockout KBM7 cells; type: cell-based; design: endogenous in cells; host or cells: Dox-inducible DDB1-knockout KBM7; settings: 5 (10 μM) 8 h, Supplementary Fig. 4f
# Experimental: as §1
# LC3B = LC3B (Homo sapiens, UniProt Q9GZQ8); assay: Thermal shift assay with LC3B; type: binding; settings: 15 µM LC3B; 60 µM compound; Glo-Melt dye
# Experimental: For thermal shift analysis, 15 µM of human LC3B was dispensed into 384-well plates (Hard-Shell 384-well 480 PCR plates, BioRAD #HSR4805) in buffer (50 mM Tris/HCl pH 7.4, 100 mM NaCl, 1 mM GSH and 0.02% CHAPS) with a Certus Flex liquid dispenser (Gyger). 60 µM compounds in DMSO (n4 or DMSO (0.6%) as control were added with an Echo 520 acoustic liquid handler (Labcyte). Glo-Melt dye was added (final concentration: 1/100), plates sealed with Lightcycler 480 Sealing Foils (Roche, #04 729 757 001) and mixed by short centrifugation (1 min, 60 g and room temeprature). A Lightcycler 480 II (Roche) was used for thermal shift curves with a temperature gradient from 20 to 95 °C according to the manufacturer´s protocol. Protein melting curves were analyzed, and the difference in meting temperature (ΔTm) was calculated with LightCycler Thermal Shift Analysis software (ROCHE) and visualized by Graphpad Prism (Version 9.5.1).
# PDEδ [3] = target: T1, PDEδ; assay: PDEδ levels by Western blot in Jurkat cells; type: cell-based; design: endogenous in cells; host or cells: Jurkat; settings: for remaining activity at 10 µM: Jurkat, 6 h, DMSO pretreatment 2 h, then 10 μM, 6h, read-out: PDEδ/Vinculin intensity (relative to DMSO control group)
# PDE6D mRNA = assay: RT-qPCR of PDE6D mRNA in Jurkat cells; type: cell-based; settings: for PDE6D mRNA level (relative to DMSO control group): 6 h, Supplementary Fig. 1f
# Experimental: Jurkat cells were grown in 12-well plates and treated with compounds for the indicated time. RNA was extracted using the RNeasy Plus Mini Kit (QIAGEN, 74134), and DNA was removed by DNase digestion with RNase-free DNase Set (QIAGEN, 79256). cDNA was synthesized using the QuantiTect Reverse Transcription Kit (QIAGEN, 205313). The mRNA expression level was evaluated with the QuantiFast SYBR Green PCR Kit (Qiagen, 330502), using the CFX96 Real-Time PCR Detection System (BIO-RAD Laboratories), and relative expression levels were calculated using the ΔΔCt method using GAPDH as reference[45] and analyzed in GraphPad Prism 9.0. The sequences of the primers for PDE6D were 5’-[…]-3’ (forward) and 5’-[…]-3’ (reverse). For GAPDH, the sequences were 5’-[…]-3’ (forward) and 5’-[…]-3’ (reverse). For BRD2, the sequences were 5’-[…]-3’ (forward), 5’-[…]-3’ (reverse). For BRD3, the sequences were 5’-[…]-3’ (forward), 5’-[…]-3’ (reverse). For BRD4, the sequences were 5’-[…]-3’ (forward), 5’-[…]-3’ (reverse). These primers were synthesized by Sigma-Aldrich.
# T1 sequence (O43924 whole entry): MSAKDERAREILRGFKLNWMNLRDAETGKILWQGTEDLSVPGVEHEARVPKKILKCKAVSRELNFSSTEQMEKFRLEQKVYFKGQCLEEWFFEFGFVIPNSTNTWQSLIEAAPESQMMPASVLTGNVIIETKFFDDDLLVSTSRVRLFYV
smiles,measurement,setting,value
Cc1ccc(-n2nc3c(=O)n(CCCC(=O)NCCc4ccc(C(=O)NCCOCCOCCOCCOc5c(Br)cc(/C=C6\C(=O)Nc7ccc(Br)cc76)cc5Br)cc4)nc(C)c3c2C)cc1 [Compound 5],PDEδ degradation in HEK293T and HAP1 cell lines,PDEδ [1]; 5 μM or 10 μM,degraded
same,PDEδ degradation in LC3B knockout HAP1 cells,PDEδ [1]; LC3B knockout HAP1 cells,induced PDEδ degradation
same,PDEδ protein level (relative to DMSO control group),PDEδ [2]; Dox-inducible DDB1 knockout KBM7 cells pretreated with 0.5 ug/mL Dox for 3 days,abolished
same,PDEδ protein level (relative to DMSO control group),"PDEδ [2]; Dox-inducible DDB1 knockout KBM7 cells, no Dox (DMSO)",44.238 and 44.9587 and 52.5197 and 56.1328
same,change of melting temperature of LC3B (ΔTm),LC3B,did not change the thermal stability
same,PDEδ degradation,"PDEδ [3]; 10 µM, 18 h incubation",ca. 75%
same,remaining activity at 10 µM,PDEδ [3]; Fig. 1g,43.9%
same,remaining activity at 10 µM,PDEδ [3]; Fig. 1d,44.2%
same,hook effect in PDEδ degradation,PDEδ [3]; up to 10 µM concentration,no hook effect
same,PDE6D mRNA level (relative to DMSO control group),PDE6D mRNA; 3 μM,141.721 and 114.564 and 90.7441
same,PDE6D mRNA level (relative to DMSO control group),PDE6D mRNA; 10 μM,145.389 and 133.515 and 106.183
same,PDEδ mRNA levels (in words),PDE6D mRNA; 6 h treatment,no reduction in mRNA levels
